From patent US20250082648A1, “COMPOSITIONS AND METHODS FOR ENHANCING KRAS INHIBITOR OR SHP2 INHIBITOR EFFICACY” (New York University, priority 2023, published 2025)

Test system: H2122 cells
Test: CRISPR/Cas9 synthetic lethal screen with TNO155 alone
Type: cell-based, human
Details: for neg|lfc: H2122 cells; for neg|score: H2122

SMILES: C[C@@H]1OCC2(CCN(c3cnc(Sc4ccnc(N)c4Cl)c(N)n3)CC2)[C@@H]1N [TNO155]
- neg|lfc (AATF knockout): −0.9199
- neg|lfc (ABT1 knockout): −1.0094
- neg|lfc (ADAT3 knockout): −1.2793
- neg|score (ADSL knockout): 0.0007395
- neg|lfc (ADSS knockout): −1.8117
- neg|score (ANAPC2 knockout): 0.0008681
- neg|lfc (ARIH1 knockout): −1.1405
- neg|score (ASF1A knockout): 0.0009774
- neg|score (ASH2L knockout): 0.000721
- neg|lfc (ATP5B knockout): −1.2287
- neg|lfc (ATP6V0B knockout): −1.1768
- neg|score (ATP6V1D knockout): 0.0008813
- neg|score (ATP6V1E1 knockout): 0.0009389
- neg|lfc (ATRX knockout): −1.7393
- neg|lfc (AURKA knockout): −1.3711
- neg|lfc (BCAS2 knockout): −0.7436
- neg|score (BCCIP knockout): 0.0009424
- neg|score (C7orf26 knockout): 0.0008313
- neg|score (C12orf45 knockout): 0.0008272
- neg|score (C16orf59 knockout): 0.0007587
- neg|score (C16orf80 knockout): 0.000879
- neg|score (C17orf70 knockout): 0.0008636
- neg|lfc (CCDC115 knockout): −1.2834
- neg|score (CCDC174 knockout): 0.0007499
- neg|lfc (CEBPZ knockout): −1.2677
- neg|score (CENPL knockout): 0.000924
- neg|lfc (CHMP6 knockout): −1.2891
- neg|score (CLP1 knockout): 0.000693
- neg|lfc (CNOT7 knockout): −0.9274
- neg|score (COPS4 knockout): 0.0009634
- neg|lfc (COPS5 knockout): −1.8379
- neg|lfc (COPS8 knockout): −0.9744
- neg|score (COX10 knockout): 0.0009358
- neg|lfc (COX11 knockout): −0.6679
- neg|lfc (CSNK2B knockout): −1.5191
- neg|score (CTNNBL1 knockout): 0.0007324
- neg|score (DCTN1 knockout): 0.0008908
- neg|lfc (DCTN5 knockout): −1.6239
- neg|lfc (DCTN6 knockout): −1.5775
- neg|lfc (DDOST knockout): −0.981
- neg|lfc (DDX52 knockout): −1.1513
- neg|score (DDX54 knockout): 0.0009466
- neg|score (DGCR8 knockout): 0.0008832
- neg|lfc (DPH5 knockout): −1.0575
- neg|lfc (DPY30 knockout): −0.7867
- neg|score (DR1 knockout): 0.0008727
- neg|lfc (DUT knockout): −0.9153
- neg|lfc (DYNC1I2 knockout): −2.041
- neg|score (EIF2B1 knockout): 0.0008906
- neg|lfc (EIF2B5 knockout): −1.2117
- neg|score (EXOC5 knockout): 0.0008724
- neg|lfc (EXOSC8 knockout): −1.0794
- neg|lfc (FASTKD5 knockout): −0.9103
- neg|score (FBL knockout): 0.0009079
- neg|score (FBXL5 knockout): 0.0009454
- neg|score (FDX1L knockout): 0.0007487
- neg|lfc (FOXRED1 knockout): −0.9267
- neg|lfc (FSCN1 knockout): −0.9432
- neg|lfc (FTSJ3 knockout): −1.5605
- neg|score (FXN knockout): 0.000775
- neg|lfc (FZD9 knockout): −1.077
- neg|score (GARS knockout): 0.0008542
- neg|lfc (GEMIN4 knockout): −1.3849
- neg|score (GINS1 knockout): 0.0009186
- neg|lfc (GSG2 knockout): −1.139
- neg|lfc (GTF2F2 knockout): −0.9729
- neg|lfc (GTF3C1 knockout): −1.0865
- neg|score (GTPBP4 knockout): 0.0008361
- neg|lfc (HEATR2 knockout): −0.6955
- neg|lfc (HGS knockout): −0.9397
- neg|lfc (HNF1B knockout): −0.822
- neg|lfc (HSPA8 knockout): −2.0457
- neg|score (HSPA14 knockout): 0.0009105
- neg|lfc (IDI1 knockout): −0.7039
- neg|score (ILF3 knockout): 0.0008338
- neg|lfc (IMP4 knockout): −1.8118
- neg|score (IPO13 knockout): 0.0008689
- neg|score (IQGAP3 knockout): 0.0008176
- neg|score (JMJD6 knockout): 0.0007183
- neg|lfc (KANSL3 knockout): −1.734
- neg|score (KBTBD2 knockout): 0.0008277
- neg|score (KDM2A knockout): 0.0008953
- neg|lfc (KIF18A knockout): −1.181
- neg|score (KRAS knockout): 0.0008327
- neg|lfc (KRR1 knockout): −1.4982
- neg|score (LSM3 knockout): 0.0008487
- neg|score (LSM5 knockout): 0.0007041
- neg|lfc (LSM12 knockout): −0.7213
- neg|score (MBTPS1 knockout): 0.0007681
- neg|score (MCAT knockout): 0.0009141
- neg|score (MCM4 knockout): 0.000877
- neg|lfc (MED11 knockout): −1.4228
- neg|score (MOGAT3 knockout): 0.000754
- neg|score (MRPL11 knockout): 0.0007518
- neg|lfc (MRPL38 knockout): −1.0939
- neg|lfc (MRPL50 knockout): −1.0478
- neg|score (MRPS2 knockout): 0.0007231
- neg|score (MRRF knockout): 0.0008379
- neg|score (MTERFD2 knockout): 0.0008506
- neg|score (MTHFD1 knockout): 0.0007217
- neg|score (MYBBP1A knockout): 0.0009866
- neg|lfc (MYBL2 knockout): −0.6253
- neg|score (NAA10 knockout): 0.0008935
- neg|score (NASP knockout): 0.0009277
- neg|score (NCAPD2 knockout): 0.0009387
- neg|score (NDUFB9 knockout): 0.0007395
- neg|score (NDUFB10 knockout): 0.0009074
- neg|score (NDUFS1 knockout): 0.0007194
- neg|lfc (NDUFS5 knockout): −0.8577
- neg|lfc (NEDD8 knockout): −2.4196
- neg|lfc (NIP7 knockout): −0.8825
- neg|lfc (NLE1 knockout): −1.8629
- neg|lfc (NME6 knockout): −1.1709
- neg|lfc (NOL6 knockout): −1.0733
- neg|score (NOL8 knockout): 0.000711
- neg|lfc (NPLOC4 knockout): −1.2039
- neg|score (NRF1 knockout): 0.0008548
- neg|lfc (NSMCE2 knockout): −1.577
- neg|lfc (NUBP1 knockout): −1.2742
- neg|lfc (OGT knockout): −1.3076
- neg|score (OR3A2 knockout): 0.0009552
- neg|lfc (PDHA1 knockout): −0.7499
- neg|lfc (PGGT1B knockout): −0.821
- neg|lfc (PI4KA knockout): −1.1904
- neg|score (PNN knockout): 0.0007486
- neg|score (POLD2 knockout): 0.0007896
- neg|score (POLR3A knockout): 0.0008536
- neg|score (PPIL4 knockout): 0.000952
- neg|lfc (PRKRIR knockout): −1.3008
- neg|score (PRPF19 knockout): 0.0007312
- neg|score (PRPF38B knockout): 0.0009555
- neg|lfc (PSMA6 knockout): −1.9056
